From the supplement of paper PMC4862054

Key:
Conditions in all cases: incubation time: 72 h
[1] = tested on: SK-BR-3; assay: drug sensitivity score (DSS), CellTiter-Blue viability (DSS (AUC-based score)); higher = stronger viability inhibition; extreme values may be limits of the assay
How it was run: (§1)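 The drug sensitivity score was derived from the area under a fitted dose-response curve. To obtain the curves, breast cancer cells (20 µl suspension) were plated into 384-well plates with compound at 5 or 9 concentrations and kept for 72 h. Viability was measured by CellTiter-Blue fluorescence at 560/590 nm, with each plate normalised to 0.1 % DMSO and a positive kill control.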

[2] = tested on: CAL-148; assay: as above
How it was run: as §1

[3] = tested on: MDA-MB-468; assay: as above
How it was run: as §1

[4] = tested on: CAL-85-1; assay: as above
How it was run: as §1

[5] = tested on: BT-549; assay: as above
How it was run: as §1

[6] = tested on: CAL-51; assay: as above
How it was run: as §1

[7] = tested on: HDQ-P1; assay: as above
How it was run: as §1

[8] = tested on: DU-4475; assay: as above
How it was run: as §1

[9] = tested on: MDA-MB-453; assay: as above
How it was run: as §1

[10] = tested on: HCC1937; assay: as above
How it was run: as §1

[11] = tested on: HCC1143; assay: as above
How it was run: as §1

[12] = tested on: BT-474; assay: as above
How it was run: as §1

[13] = tested on: MFM-223; assay: as above
How it was run: as §1

[14] = tested on: MDA-MB-231; assay: as above
How it was run: as §1

[15] = tested on: CAL-148; assay: normalised viability (% of control), CellTiter-Blue; higher = more viable cells (100 = DMSO, 0 = benzethonium chloride kill control)
Procedure: (§2)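 DSRT, CellTiter-Blue viability, 72 h incubation. Signal is normalised to DMSO and benzethonium chloride controls. Value is the normalised response at dose 1.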

[16] = tested on: MDA-MB-468; assay: as above
Procedure: as §2

[17] = tested on: CAL-85-1; assay: as above
Procedure: as §2

[18] = tested on: BT-549; assay: as above
Procedure: as §2

[19] = tested on: CAL-51; assay: as above
Procedure: as §2

[20] = tested on: CAL-120; assay: as above
Procedure: as §2

[21] = tested on: HCC1599; assay: as above
Procedure: as §2

[22] = tested on: MDA-MB-453; assay: as above
Procedure: as §2

[23] = tested on: HCC1937; assay: as above
Procedure: as §2

[24] = tested on: HCC1143; assay: as above
Procedure: as §2

[25] = tested on: MDA-MB-436; assay: as above
Procedure: as §2

[26] = tested on: Hs578T; assay: as above
Procedure: as §2

[27] = tested on: MFM-223; assay: as above
Procedure: as §2

Row | SMILES | drug sensitivity score [1] | drug sensitivity score [2] | drug sensitivity score [3] | drug sensitivity score [4] | drug sensitivity score [5] | drug sensitivity score [6] | drug sensitivity score [7] | drug sensitivity score [8] | drug sensitivity score [9] | drug sensitivity score [10] | drug sensitivity score [11] | drug sensitivity score [12] | drug sensitivity score [13] | drug sensitivity score [14] | normalised viability ([15]; 0.1 nM) [%] | normalised viability ([16]; 0.1 nM) [%] | normalised viability ([17]; 0.1 nM) [%] | normalised viability ([18]; 0.1 nM) [%] | normalised viability ([19]; 0.1 nM) [%] | normalised viability ([20]; 0.1 nM) [%] | normalised viability ([21]; 0.1 nM) [%] | normalised viability ([22]; 0.1 nM) [%] | normalised viability ([23]; 0.1 nM) [%] | normalised viability ([24]; 0.1 nM) [%] | normalised viability ([25]; 0.1 nM) [%] | normalised viability ([26]; 0.1 nM) [%] | normalised viability ([27]; 0.1 nM) [%] | normalised viability ([15]; 1 nM) [%] | normalised viability ([16]; 1 nM) [%] | normalised viability ([17]; 1 nM) [%] | normalised viability ([18]; 1 nM) [%] | normalised viability ([19]; 1 nM) [%] | normalised viability ([20]; 1 nM) [%] | normalised viability ([21]; 1 nM) [%] | normalised viability ([22]; 1 nM) [%] | normalised viability ([23]; 1 nM) [%] | normalised viability ([24]; 1 nM) [%] | normalised viability ([25]; 1 nM) [%] | normalised viability ([26]; 1 nM) [%] | normalised viability ([27]; 1 nM) [%]
1 | C/C(=C\c1csc(C)n1)[C@@H]1C[C@@H]2O[C@]2(C)CCC[C@H](C)[C@H](O)[C@@H](C)C(=O)C(C)(C)[C@@H](O)CC(=O)O1 [Patupilone] | 23.7 | 24.8 | 15.3 | 24.6 | 22.4 | 20.4 | 12.2 | 22.3 | 22.5 | 27 | 16.3 | 18.2 | 12.7 | 28.5 | 105 | 101 | 93.4 | 113 | 102 | 94.6 | 97.3 | 97.5 | 95.6 | 102 | 116 | 118 | 104 |  |  |  |  |  |  |  |  |  |  |  |  | 
2 | CCCCCCCCc1ccc(CCC(N)(CO)CO)cc1 [Fingolimod] | 4.64 | 0 | 5.1 | 2.9 | 6.99 | 0 | 3.07 | 0 | 3.02 | 5.93 | 0 | 4.46 | 3.93 | 7.64 |  |  |  |  |  |  |  |  |  |  |  |  |  | 96.8 | 106 | 85.8 | 106 | 117 | 82.3 | 105 | 94 | 96.5 | 92.5 | 113 | 97.6 | 94
3 | O=C(O)CCCc1ccc(N(CCCl)CCCl)cc1 [Chlorambucil] | 0 | 0 | 4.32 | 0 | 0 | 0 | 0 | 0 | 0 | 6.58 | 0 | 0 | 0 | 0 |  |  |  |  |  |  |  |  |  |  |  |  |  | 113 | 95.2 | 97.4 | 96.7 | 111 | 96.6 | 117 | 109 | 97.6 | 105 | 105 | 99.4 | 94.3
4 | CN(C)CCN1C(=O)c2cccc3cc(N)cc(c23)C1=O [Amonafide] | 2.78 | 7.32 | 1.26 | 3.78 | 0.97 | 5.33 | 2.28 | 5.45 | 4.67 | 7.96 | 0.876 | 0.749 | 1.69 | 7.74 |  |  |  |  |  |  |  |  |  |  |  |  |  | 89.9 | 110 | 90 | 94.4 | 107 | 78.7 | 88.2 | 87.3 | 108 | 83.7 | 102 | 121 | 93
